Read-outs that look alike come from different tables or passages of the source.
Legend:
[1] = system: GM-CSF release from LPS-stimulated monocytes; assay: Inhibition of GM-CSF release from LPS-stimulated monocytes; format: cell-based, human; conditions: for IC50: Homo sapiens, Monocyte
Method: Inhibition of GM-CSF Release from LPS-Stimulated Monocytes EDTAized human whole blood was mixed with Hanks' buffer in the ratio 1:1. Histopaque 1077 solution (15 ml) was cautiously overlaid with max. 40 ml of the blood: Hanks' mixture and centrifuged (2000 rpm) at room temperature for 30 min. The band enriched with leukocytes was aspirated off, washed twice with Hanks' buffer and transferred into RPMI 1640 medium with Glutamax I (Gibco BRL, Eggenstein). The monocytes were removed through their adherence to the cell culture bottle over a period of two hours. The cells were then thoroughly washed with medium in order to remove non-adherent cells. […] The cells were preincubated with the stated test substances for 30 minutes. LPS was then added, and incubation was continued for a period of 24 h. The supernatants were aspirated off and investigated by ELISA. The amount of secreted human GM-CSF in the cell culture supernatants was determined by using an OptEIA™ human GM-CSF ELISA test (Pharmingen, San Diego). It was carried out in microtiter plates. Anti-human monoclonal antibodies were coupled as antibodies to the plate at 4° C. overnight. This coating and three washes were followed by saturation of nonspecific bindings by means of assay diluent solution™ (PBS with 10% FCS, pH 7.0) (Pharmingen, San Diego) at RT for 1 h. This was followed by incubation with the samples and the standard (recombinant human GM-CSF) at 4° C. overnight. […] All the steps were followed by washing 5 or 7 times with PBS/0.05% Tween 20. The enzyme activity was determined using substrate solution™ (tetramethylbenzidine (TMB) and hydrogen peroxide, Pharmingen, San Diego) as substrate at RT for 30 min. The enzyme-substrate reaction was stopped with 1M phosphoric acid, and the extinction at 450 nm was measured.

[2] = system: TNF release from LPS-stimulated monocytes; assay: Inhibition of TNF release from LPS-stimulated monocytes; format: cell-based, human; conditions: for IC50: Homo sapiens, Monocyte, substance alone, LPS-stimulated monocytes
Method: EDTAized human whole blood was mixed with Hanks' buffer in the ratio 1:1. Histopaque 1077 solution (15 ml) was cautiously overlaid with max. 40 ml of the blood: Hanks' mixture and centrifuged (2000 rpm) at room temperature for 30 min. The band enriched with leukocytes was aspirated off, washed twice with Hanks' buffer and transferred into RPMI 1640 medium with Glutamax I (Gibco BRL, Eggenstein). The monocytes were removed through their adherence to the cell culture bottle over a period of two hours. The cells were then thoroughly washed with medium in order to remove non-adherent cells. The resulting monocytes were cultured in RPMI 1640 medium with 10% heat-inactivated fetal calf's serum (FCS) and 100 U/ml penicillin and 100 μg/ml streptomycin in a CO2 incubator (5% CO2, 96% relative humidity, 37° C.).
Primary monocytes were seeded in 24-well plates at 5×10^5 cells/well. The cells were preincubated with the stated test substances for 30 minutes. LPS was then added, and incubation was continued for a period of 24 h. The supernatants were aspirated off and investigated by ELISA.

[3] = substance alone, LPS-stimulated primary monocytes, 24 h, read-out: IC50 for GM-CSF release from human monocytes
[4] = when 10 nM loteprednol was given simultaneously

IC50 ([1]; addition of 10 nM loteprednol, read-out: IC50 for DFHO for GM-CSF release in the presence of loteprednol)	IC50 [1, 3]	reduction in the IC50 for GM-CSF release [1, 4]	IC50 [2]	reduction in the IC50 for TNF release [2, 4]	IC50 ([1]; addition of 5 nM DFHO, read-out: IC50 for loteprednol for GM-CSF release in the presence of DFHO)	reduction in the IC50 for GM-CSF release ([1]; when 5 nM DFHO was given)	reduction in the IC50 for TNF release ([2]; when 5 nM DFHO was given)	SMILES
60 nM	3200 nM	98%	5700 nM	99%	–	–	–	O=C(Nc1c(Cl)cncc1Cl)C(=O)c1cn(Cc2ccc(F)cc2)c2ccc(O)cc12 [DFHO, N-(3,5-dichloropyridin-4-yl)-2-[1-(4-fluoro-benzyl)-5-hydroxyindol-3-yl]-2-oxoacetamide]
–	53.7 nM	–	85.5 nM	–	13.4 nM	75%	65%	CCOC(=O)O[C@]1(C(=O)OCCl)CC[C@H]2[C@@H]3CCC4=CC(=O)C=C[C@]4(C)[C@H]3[C@@H](O)C[C@@]21C [loteprednol]

Source: patent US20050288265A1, “Novel combination of glucocorticoids and pde-4 inhibitors for treating respiratory diseases, allegic diseases, asthma and copd” (priority 2002, published 2005)
